Reference: patent publication US7465815B2, “Cannabinoid receptor modulator” (priority 2003, dated 2008)
Read-outs that look alike come from different tables or passages of the source.

Experiments:
CB1 receptor = target: T1, CB1 receptor (Mus musculus, UniProt P47746); assay: Body temperature-lowering action on mouse (CB1 receptor agonistic activity in vivo); conditions: Jcl: ICR male mice, 1 mg/kg i.p., rectal temperature 30 minutes after administration, compared with control group
T1 construct: from tissue; host or cells: whole animal, Jcl: ICR male mice
T1 sequence (P47746 whole entry): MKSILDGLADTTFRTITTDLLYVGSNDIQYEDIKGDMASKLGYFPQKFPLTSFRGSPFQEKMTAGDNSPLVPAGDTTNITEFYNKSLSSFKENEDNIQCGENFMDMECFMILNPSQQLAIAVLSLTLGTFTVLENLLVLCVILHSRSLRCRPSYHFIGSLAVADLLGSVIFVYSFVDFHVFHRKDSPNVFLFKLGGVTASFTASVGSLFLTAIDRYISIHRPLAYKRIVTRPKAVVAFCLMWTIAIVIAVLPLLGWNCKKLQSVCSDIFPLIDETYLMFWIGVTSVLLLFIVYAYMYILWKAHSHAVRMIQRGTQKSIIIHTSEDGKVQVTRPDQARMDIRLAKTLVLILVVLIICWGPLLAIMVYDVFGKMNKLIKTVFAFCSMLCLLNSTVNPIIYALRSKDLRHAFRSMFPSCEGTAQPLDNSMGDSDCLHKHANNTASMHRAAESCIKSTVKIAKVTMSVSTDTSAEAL
Experimental: Body temperature-lowering action on mouse
CB1 receptor agonistic activity of the compound of the present invention in vivo was evaluated by investigating the effect on the body temperature of mouse after the drug was administered to the mouse. In this experiment, Jcl: ICR male mice (5 weeks old) were used. After measuring the rectal temperature with a thermometer (Physitemp BAT-12) that was connected to a probe for measuring body temperature, the compound dissolved in 2.2% EtOH and 5% G2-β-cyclodextrin (solvent) was administered intraperitoneally. Solvent only was administered to the control group. 30 minutes after administration, rectal temperature was measured again. The experiment was conducted for 4 subjects per a group.

human CB2 receptor = target: T2, human CB2 receptor (Homo sapiens, UniProt P34972); assay: [3H]-CP55,940 binding inhibition assay, CHO cell membrane fraction expressing human CB2 receptor
T2 construct: expressed in transfected cells; host or cells: CHO cells (membrane fraction)
T2 sequence (P34972 whole entry): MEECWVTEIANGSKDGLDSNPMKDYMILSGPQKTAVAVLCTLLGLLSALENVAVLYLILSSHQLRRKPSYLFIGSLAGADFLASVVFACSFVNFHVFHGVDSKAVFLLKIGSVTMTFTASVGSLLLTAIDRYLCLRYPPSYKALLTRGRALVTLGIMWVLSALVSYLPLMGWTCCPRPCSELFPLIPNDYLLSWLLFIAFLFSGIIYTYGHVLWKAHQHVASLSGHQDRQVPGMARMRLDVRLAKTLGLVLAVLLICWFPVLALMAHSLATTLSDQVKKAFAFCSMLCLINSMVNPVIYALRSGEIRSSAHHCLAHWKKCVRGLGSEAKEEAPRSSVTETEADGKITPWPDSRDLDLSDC
Experimental: (§1) [^3H]-CP55,940 binding assay with a cell membrane fraction expressing human CB1 and CB2 receptor
(§2) [^3H]-CP55940 binding inhibition assay was conducted by incubating a CHO cell membrane fraction expressing human CB1 receptor and the test compound and 500 pM [^3H]-CP55940 in reaction buffer (50 mM Tris-HCl (pH7.4), 5 mM MgCl2, 2.5 mM EDTA and 0.5% BSA (fatty acid free)) at room temperature for 60 minutes. The reaction solution was filtered through GF/C filter, washed with 300 μl of washing buffer (50 mM Tris-HCl (pH7.4), 0.05% BSA (fatty acid free)) four times, and the radioactivity of the filter was measured with a Top Count scintillation counter (Packard). As results, the test compound has inhibited binding of [^3H]-CP55940 to the membrane fraction dose-dependently.
(§3) The inhibitory activity of the test compound to [^3H]-CP55940 binding was calculated by percent on the basis that radioactivity is 100% when only 500 pM [^3H]-CP55940 was added, and 0% when 500 pM [^3H]-CP55940 and 100 nM CP55940 were added at the same time. Further, IC50 value of the test compound was calculated by analyzing concentrations and percents of the test compound with PRISM 3.0 (Graphpad Software, Inc.).
The same assay was also conducted for a CHO cell membrane fraction expressing human CB2 receptor, and the inhibitory activity to [^3H]-CP55940 binding was calculated.

human CB1 receptor = target: T3, human CB1 receptor (Homo sapiens, UniProt P21554); assay: [3H]-CP55,940 binding inhibition assay, CHO cell membrane fraction expressing human CB1 receptor
T3 construct: expressed in transfected cells; host or cells: CHO cells (membrane fraction)
T3 sequence (P21554 whole entry): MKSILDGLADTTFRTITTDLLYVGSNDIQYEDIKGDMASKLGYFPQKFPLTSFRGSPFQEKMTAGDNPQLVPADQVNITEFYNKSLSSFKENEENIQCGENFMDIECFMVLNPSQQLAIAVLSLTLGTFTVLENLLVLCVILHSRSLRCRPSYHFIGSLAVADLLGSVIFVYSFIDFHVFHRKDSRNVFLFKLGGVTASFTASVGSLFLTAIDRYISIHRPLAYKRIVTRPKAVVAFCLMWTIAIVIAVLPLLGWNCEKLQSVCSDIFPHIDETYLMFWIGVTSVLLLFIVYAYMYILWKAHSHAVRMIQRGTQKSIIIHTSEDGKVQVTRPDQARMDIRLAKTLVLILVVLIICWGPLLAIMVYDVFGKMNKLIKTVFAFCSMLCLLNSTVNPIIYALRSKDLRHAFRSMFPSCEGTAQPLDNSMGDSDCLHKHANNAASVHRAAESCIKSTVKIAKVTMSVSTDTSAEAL
Experimental: as §1, §2, §3

Structure (SMILES): Cc1c(NC(=O)CC(C)(C)C)c(C)c2c(c1C(C)O)OCC2c1ccc(C(C)C)cc1 (single isomer, unassigned) [Example 28, N-(7-(1-Hydroxyethyl)-3-(4-isopropylphenyl)-4,6-dimethyl-2,3-dihydro-1-benzofuran-5-yl)-3,3-dimethylbutanamide]
- Test Results (body temperature-lowering action) (CB1 receptor): Effective (estimated as effective if the compound of the present invention lowered the body temperature substantially by 1 °C or more when compared with the control group 30 minutes after administration of 1 mg/kg, i.p.)
- IC50 (human CB2 receptor): < 10 nM
- IC50 (human CB1 receptor): < 10 nM

Structure (SMILES): Cc1c(NC(=O)CC(C)(C)C)c(C)c2c(c1C(C)O)OCC2c1ccc(C(C)C)cc1 (single isomer, unassigned) [Example 29, N-(7-(1-Hydroxyethyl)-3-(4-isopropylphenyl)-4,6-dimethyl-2,3-dihydro-1-benzofuran-5-yl)-3,3-dimethylbutanamide]
- Test Results (body temperature-lowering action) (CB1 receptor): Effective (estimated as effective if the compound of the present invention lowered the body temperature substantially by 1 °C or more when compared with the control group 30 minutes after administration of 1 mg/kg, i.p.)
- IC50 (human CB2 receptor; read-out: CB2 IC50 value, 500 pM [3H]-CP55940, CHO cell membrane fraction expressing human CB2 receptor): < 10 nM
- IC50 (human CB1 receptor; read-out: CB1 IC50 value, 500 pM [3H]-CP55940, CHO cell membrane fraction expressing human CB1 receptor, room temperature, 60 minutes): < 10 nM

Structure (SMILES): CCC(O)c1c(C)c(NC(=O)CC(C)(C)C)c(C)c2c1OCC2c1ccc(C(C)C)cc1 (single isomer, unassigned) [Example 31, N-(7-(1-Hydroxypropyl)-3-(4-isopropylphenyl)-4,6-dimethyl-2,3-dihydro-1-benzofuran-5-yl)-3,3-dimethylbutanamide]
- Test Results (body temperature-lowering action) (CB1 receptor): Effective (estimated as effective if the compound of the present invention lowered the body temperature substantially by 1 °C or more when compared with the control group 30 minutes after administration of 1 mg/kg, i.p.)
- IC50 (human CB2 receptor): < 10 nM
- IC50 (human CB1 receptor): < 10 nM

Structure (SMILES): Cc1c(C)c2c(c(C)c1NC(=O)CC(C)(C)C)C(c1ccc(C(C)C)cc1)CO2 (stereo not drawn) [Example 1, N-(3-(4-Isopropylphenyl)-4,6,7-trimethyl-2,3-dihydro-1-benzofuran-5-yl)-3,3-dimethylbutanamide]
- Test Results (body temperature-lowering action) (CB1 receptor): Effective (estimated as effective if the compound of the present invention lowered the body temperature substantially by 1 °C or more when compared with the control group 30 minutes after administration of 1 mg/kg, i.p.)
- IC50 (human CB2 receptor): < 10 nM
- IC50 (human CB1 receptor): 20 nM

Structure (SMILES): Cc1c(C)c2c(c(C)c1NC(=O)CC(C)(C)C)[C@@H](c1ccc(C(C)C)cc1)CO2 [Example 7, (+)-N-((3R)-3-(4-Isopropylphenyl)-4,6,7-trimethyl-2,3-dihydro-1-benzofuran-5-yl)-3,3-dimethylbutanamide]
- Test Results (body temperature-lowering action) (CB1 receptor): Effective (estimated as effective if the compound of the present invention lowered the body temperature substantially by 1 °C or more when compared with the control group 30 minutes after administration of 1 mg/kg, i.p.)
- IC50 (human CB2 receptor): < 10 nM
- IC50 (human CB1 receptor): < 10 nM

Structure (SMILES): CCC(=O)Nc1c(C)c(C)c2c(c1C)C(c1ccc(C(C)C)cc1)CO2 (stereo not drawn) [Example 9, N-(3-(4-Isopropylphenyl)-4,6,7-trimethyl-2,3-dihydro-1-benzofuran-5-yl)propionamide]
- IC50 (human CB2 receptor): 11 nM
- IC50 (human CB1 receptor): 79 nM

Structure (SMILES): Cc1c(C)c2c(c(C)c1NC(=O)NC(C)(C)C)C(c1ccc(C(C)C)cc1)CO2 (stereo not drawn) [Example 14, N-(tert-Butyl)-N′-(3-(4-isopropylphenyl)-4,6,7-trimethyl-2,3-dihydro-1-benzofuran-5-yl)urea]
- Test Results (body temperature-lowering action) (CB1 receptor): Effective (estimated as effective if the compound of the present invention lowered the body temperature substantially by 1 °C or more when compared with the control group 30 minutes after administration of 1 mg/kg, i.p.)
- IC50 (human CB2 receptor): < 10 nM
- IC50 (human CB1 receptor): 20 nM

Structure (SMILES): Cc1c(NC(=O)CC(C)(C)C)c(C)c2c(c1C(C)O)OCC2c1ccc(C(C)C)cc1 (stereo not drawn) [Example 22, N-(7-(1-Hydroxyethyl)-3-(4-isopropylphenyl)-4,6-dimethyl-2,3-dihydro-1-benzofuran-5-yl)-3,3-dimethylbutanamide]
- Test Results (body temperature-lowering action) (CB1 receptor): Effective (estimated as effective if the compound of the present invention lowered the body temperature substantially by 1 °C or more when compared with the control group 30 minutes after administration of 1 mg/kg, i.p.)
- IC50 (human CB2 receptor): < 10 nM
- IC50 (human CB1 receptor): 11 nM

Structure (SMILES): CCc1c(C)c(NC(=O)CC(C)(C)C)c(C)c2c1OCC2c1ccc(C(C)C)cc1 (stereo not drawn) [Example 23, N-(7-Ethyl-3-(4-isopropylphenyl)-4,6-dimethyl-2,3-dihydro-1-benzofuran-5-yl)-3,3-dimethylbutanamide]
- Test Results (body temperature-lowering action) (CB1 receptor): Effective (estimated as effective if the compound of the present invention lowered the body temperature substantially by 1 °C or more when compared with the control group 30 minutes after administration of 1 mg/kg, i.p.)
- IC50 (human CB2 receptor): < 10 nM
- IC50 (human CB1 receptor): < 10 nM

Structure (SMILES): CC(=O)c1c(C)c(NC(=O)CC(C)(C)C)c(C)c2c1OCC2c1ccc(C(C)C)cc1 (stereo not drawn) [Example 32, N-(7-Acetyl-3-(4-isopropylphenyl)-4,6-dimethyl-2,3-dihydro-1-benzofuran-5-yl)-3,3-dimethylbutanamide]
- Test Results (body temperature-lowering action) (CB1 receptor): Effective (estimated as effective if the compound of the present invention lowered the body temperature substantially by 1 °C or more when compared with the control group 30 minutes after administration of 1 mg/kg, i.p.)
- IC50 (human CB2 receptor): < 10 nM
- IC50 (human CB1 receptor): < 10 nM

Structure (SMILES): Cc1c(NC(=O)CC(C)(C)C)c(C)c(C(C)(C)O)c2c1C(c1ccc(C(C)C)cc1)CO2 (stereo not drawn) [Example 33, N-(7-(1-Hydroxy-1-methylethyl)-3-(4-isopropylphenyl)-4,6-dimethyl-2,3-dihydro-1-benzofuran-5-yl)-3,3-dimethylbutanamide]
- Test Results (body temperature-lowering action) (CB1 receptor): Effective (estimated as effective if the compound of the present invention lowered the body temperature substantially by 1 °C or more when compared with the control group 30 minutes after administration of 1 mg/kg, i.p.)
- IC50 (human CB2 receptor): < 10 nM
- IC50 (human CB1 receptor): 14 nM

Structure (SMILES): CCCc1c(C)c(NC(=O)CC(C)(C)C)c(C)c2c1OCC2c1ccc(C(C)C)cc1 (stereo not drawn) [Example 34, N-(3-(4-Isopropylphenyl)-4,6-dimethyl-7-propyl-2,3-dihydro-1-benzofuran-5-yl)-3,3-dimethylbutanamide]
- Test Results (body temperature-lowering action) (CB1 receptor): Effective (estimated as effective if the compound of the present invention lowered the body temperature substantially by 1 °C or more when compared with the control group 30 minutes after administration of 1 mg/kg, i.p.)
- IC50 (human CB2 receptor): < 10 nM
- IC50 (human CB1 receptor): < 10 nM

Structure (SMILES): Cc1c(Br)c2c(c(C)c1NC(=O)CC(C)(C)C)C(c1ccc(C(C)C)cc1)CO2 (stereo not drawn) [Example 35, N-(7-Bromo-3-(4-isopropylphenyl)-4,6-dimethyl-2,3-dihydro-1-benzofuran-5-yl)-3,3-dimethylbutanamide]
- Test Results (body temperature-lowering action) (CB1 receptor): Effective (estimated as effective if the compound of the present invention lowered the body temperature substantially by 1 °C or more when compared with the control group 30 minutes after administration of 1 mg/kg, i.p.)
- IC50 (human CB2 receptor): < 10 nM
- IC50 (human CB1 receptor): < 10 nM

Structure (SMILES): COc1c(C)c(NC(=O)CC(C)(C)C)c(C)c2c1OCC2c1ccc(C(C)C)cc1 (stereo not drawn) [Example 36, N-(3-(4-Isopropylphenyl)-7-methoxy-4,6-dimethyl-2,3-dihydro-1-benzofuran-5-yl)-3,3-dimethylbutanamide]
- Test Results (body temperature-lowering action) (CB1 receptor): Effective (estimated as effective if the compound of the present invention lowered the body temperature substantially by 1 °C or more when compared with the control group 30 minutes after administration of 1 mg/kg, i.p.)
- IC50 (human CB2 receptor): < 10 nM
- IC50 (human CB1 receptor): < 10 nM

Structure (SMILES): CCOC(=O)C(C)(C)Oc1cc(C)cc(C)c1Cc1ccc(C(C)C)cc1 [Reference Example 153]
- IC50 (human CB2 receptor; 500 pM [3H]-CP55940, CHO cell membrane fraction expressing human CB2 receptor, read-out: CB2 IC50 value): 560 nM
- IC50 (human CB1 receptor; 500 pM [3H]-CP55940, CHO cell membrane fraction expressing human CB1 receptor, room temperature, 60 minutes, read-out: CB1 IC50 value): 110 nM

Structure (SMILES): Cc1cc(C)c2c(c1)SCC2c1ccc(C(C)C)cc1 (stereo not drawn) [Reference Example 212]
- IC50 (human CB2 receptor): < 10 nM
- IC50 (human CB1 receptor): 69 nM

Structure (SMILES): Cc1ccc(C)c2c1OC(=O)C2c1ccc(C(C)C)cc1 (stereo not drawn) [Reference Example 230]
- IC50 (human CB2 receptor): 55 nM
- IC50 (human CB1 receptor): 55 nM

Structure (SMILES): Cc1ccc(C)c(C(CO)c2ccc(C(C)C)cc2)c1O (stereo not drawn) [Reference Example 233]
- IC50 (human CB2 receptor): 47 nM
- IC50 (human CB1 receptor): 38 nM

Structure (SMILES): Cc1c(C)c(C(CO)c2ccc(C(C)C)cc2)c(O)c(C)c1Br (stereo not drawn) [Reference Example 234]
- IC50 (human CB2 receptor): 31 nM
- IC50 (human CB1 receptor): 40 nM
